Data published in patent publication US7943568B2, “Antitumor agents” (The Ohio State University Research Foundation, priority 2005, dated 2011).
“Also recorded” adds a separate entry of the source. Where a name gives a salt, the structure may show the parent alone. Read-outs that look alike come from different tables or passages of the source. Each block holds one molecule with its values, some of them ahead of it.

Key:
RBC GSH = RBC GSH depletion by DEM pretreatment in the rat; assay type: in vivo
[1] = Rat pharmacokinetics of FK228; assay type: in vivo; details: for AUC(0-inf) / Cmax / MRT / clearance / Vd: male, Sprague-Dawley, plasma, iv; for clearance: read-out: Cltotal; for Vd: read-out: Vdss
Description: (§1) Pharmacokinetics and tissue distribution studies in the rat Twenty-three male S.D. rates weighing 250-300 g were divided into 5 groups. All rats were cannulated by the left jugular vein under ketamine anesthesia (im, 100 mg/kg) for drug administration and/or blood sampling. The rats were kept in metabolism cages and allowed to recover overnight with food and water given ad libitum. The animal protocols were approved by the Institutional Laboratory Animal Care and Use Committee (ILACUC) of the Ohio State University Laboratory Animal Resources (ULAR), and adhered to the guideline and “Principles of Laboratory Animal Care” by National Institutes of Health (NIH).
(§2) At the time schedule of predose, 5, 10, 20, […], 60, 120, 180, 300 minutes after doing, blood samples of 0.2 mL each were withdrawn from the same cannula with an equal volume of normal saline. Plasma was separated immediately by centrifugation (10,000 g×0.5 min.) extracted with 10-volume ethyl acetate. After centrifugation, the organic layer was transferred into a clean conical Falcon polypropylene tube, and evaporated under a stream of nitrogen. […] Weighed wet organ tissue samples were homogenized in appropriate volumes of blank human plasma with an Ultra-Turrax SDT1610 electric homogenizer (Tekmar, Cincinnati, Ohio) at the highest speed setting for 10 seconds 4 times. […] The homogenates were then extracted and determined as in plasma samples (Chan, et al. 1997; Li and Chan, 2000). Feces samples were homogenized similarly as above. After centrifugation, the supernatant was extracted and determined as plasma samples.
(§3) A 2 mm×50 mm Keystone BetaBasic-C8 column (Keystone, Bellefonte, Pa.) and an isocratic elution were used with the mobile phase consisting of 70% acetonitrile and 0.1% acetic acid at a flow rate of 0.2 mL/min. The flow leaving the HPLC column was split in a ratio of 20:1, with only 10 μL/min. entering the mass spectrometer. All samples were determined by individual calibration curves using specific blank sample matrix. […] While the recoveries from rat muscle and fat samples were further normalized to whole body weight assuming the muscle and fat compose 40 and 4% of the rat total body weight, respectively (Davies and Morris, 1993).

[2] = Tissue distribution and dose recovery (mass balance) of FK228 in the rat; assay type: in vivo; details: for dose excreted: male, Sprague-Dawley, intravenous
Description: as §1, §2, §3

[3] = FK228 stability and protein binding in human plasma; assay type: in vitro ADME
Pgp [4] = biological target: T1, Pgp (Homo sapiens, UniProt P08183); details: multiple cellular models
[5] = biological target: multidrug resistant-associated protein 1 (MRP1) (Homo sapiens, UniProt P33527); details: multiple cellular models
[6] = i.v. bolus, for 250 g rats; cited from earlier work
[7] = patients, 4-hour infusion; cited from earlier work
Pgp [8] = biological target: T1, Pgp; details: earlier finding; cited from earlier work
[9] = In vitro rat blood distribution / RBC uptake of FK228
HDAC = tested on: T2, HDAC; assay type: biochemical; details: for IC50: n=3, read-out: IC50, HDAC inhibitory activity; for times more potent as HDAC inhibitors than FK228: relative to FK228
T2 construct: other: n=3; other: relative to FK228
Description: To the plasma was added 2 mL acetonitrile to precipitate the proteins. After centrifugation, the acetonitrile layer was transferred to a clean Falcon polypropylene tube and evaporated to dryness under a stream of nitrogen. […] Their HDAC inhibitory activities were assayed by using the Fluor de Lys HDAC Fluorescent Activity Assay/Drug Discovery Kit (BioMol, Plymouth Meeting, Pa.).

in vitro = in vitro ADME; details: for half-life at 100 μg/mL: rat, plasma; for time to plateau or maximum concentration: FK228 100 μg/mL, 37° C.
Description: Serial samples were removed at pre-selected time points up to […]. FK228 and its major metabolites were monitored by ESI LC_MS on the API instrument.

[10] = Distribution of FK228 and metabolites between plasma and RBC after rat whole blood incubation; assay type: in vitro ADME, rat; details: for detection in RBC cytosol / homogenate / detection in plasma fraction: FK228 100 μg/mL, rat whole blood, 37° C., 60 min
Description: After centrifugation, the plasma was removed and the RBC fraction was washed 8 times with 2 mL saline each. […] The RBC debris was further washed with 1 mL acetonitrile each 8 times.
The blood was centrifuged to remove plasma. To the RBC fraction was added blank rat plasma to restore the initial volume, and the mixture was homogenized by a glass tissue grinder (400 strokes). The plasma and RBC homogenates were analyzed by ESI ion-trap LC-MS. A Waters Spherisorb S3 ODS1 column (2 mm ID×10 cm, particle 5 μm, Waters Corporation, Milford, Mass., USA) with a gradient elution was used. The gradient was initiated with 25% acetonitrile in 0.1% acetic acid for 5 minutes, followed by a linear increase to 70% acetonitrile over 5 minutes, which was kept constant for 15 minutes. The mobile phase was then returned linearly to the original condition over 3 minutes, which was then maintained for 7 minutes. The cycle time for each analysis was 35 minutes.

[11] = 2 mg/kg, I.v. bolus (n = 6), 2 mg/kg
[12] = I.v. bolus with CsA pretreatment (n = 3)
[13] = I.v. bolus with DEM pretreatment (n = 5)
[14] = after 1 hour whole blood incubation at 37° C.
[15] = rat plasma containing 10 mM GSH

T1 sequence (P08183 whole entry): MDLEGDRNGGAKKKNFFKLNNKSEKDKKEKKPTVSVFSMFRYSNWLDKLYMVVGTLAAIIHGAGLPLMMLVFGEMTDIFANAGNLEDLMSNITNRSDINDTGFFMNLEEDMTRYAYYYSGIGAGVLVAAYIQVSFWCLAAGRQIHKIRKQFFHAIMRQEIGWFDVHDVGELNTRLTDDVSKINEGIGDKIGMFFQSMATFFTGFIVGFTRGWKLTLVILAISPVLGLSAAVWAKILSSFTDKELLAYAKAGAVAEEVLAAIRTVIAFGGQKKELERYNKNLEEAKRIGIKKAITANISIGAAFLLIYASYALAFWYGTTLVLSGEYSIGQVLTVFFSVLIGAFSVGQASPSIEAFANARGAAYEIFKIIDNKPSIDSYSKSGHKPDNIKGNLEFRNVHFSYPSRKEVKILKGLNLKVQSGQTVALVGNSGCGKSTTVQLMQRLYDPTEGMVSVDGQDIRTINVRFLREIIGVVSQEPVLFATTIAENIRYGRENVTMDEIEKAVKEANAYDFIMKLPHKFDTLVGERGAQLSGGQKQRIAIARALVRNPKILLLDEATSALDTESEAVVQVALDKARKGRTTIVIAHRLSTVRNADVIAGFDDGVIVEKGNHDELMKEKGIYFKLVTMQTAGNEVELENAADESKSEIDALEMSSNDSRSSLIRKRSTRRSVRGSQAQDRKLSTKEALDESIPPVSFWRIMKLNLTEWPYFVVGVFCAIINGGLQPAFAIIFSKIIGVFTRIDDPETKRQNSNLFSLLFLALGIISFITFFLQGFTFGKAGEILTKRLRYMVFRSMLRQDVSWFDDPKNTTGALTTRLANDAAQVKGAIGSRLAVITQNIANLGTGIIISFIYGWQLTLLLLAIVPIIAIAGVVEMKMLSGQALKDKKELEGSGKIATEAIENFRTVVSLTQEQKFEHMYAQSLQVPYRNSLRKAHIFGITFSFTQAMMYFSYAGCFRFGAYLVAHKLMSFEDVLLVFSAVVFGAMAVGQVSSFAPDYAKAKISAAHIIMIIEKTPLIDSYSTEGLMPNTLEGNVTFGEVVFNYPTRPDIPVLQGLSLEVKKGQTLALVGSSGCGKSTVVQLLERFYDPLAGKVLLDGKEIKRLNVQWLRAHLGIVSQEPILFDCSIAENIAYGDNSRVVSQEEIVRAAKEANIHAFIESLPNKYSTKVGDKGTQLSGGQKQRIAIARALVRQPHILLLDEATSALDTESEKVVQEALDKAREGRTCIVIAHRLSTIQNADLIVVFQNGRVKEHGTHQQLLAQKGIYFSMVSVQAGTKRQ
Chain of multidrug resistant-associated protein 1 (MRP1) (P33527 whole entry): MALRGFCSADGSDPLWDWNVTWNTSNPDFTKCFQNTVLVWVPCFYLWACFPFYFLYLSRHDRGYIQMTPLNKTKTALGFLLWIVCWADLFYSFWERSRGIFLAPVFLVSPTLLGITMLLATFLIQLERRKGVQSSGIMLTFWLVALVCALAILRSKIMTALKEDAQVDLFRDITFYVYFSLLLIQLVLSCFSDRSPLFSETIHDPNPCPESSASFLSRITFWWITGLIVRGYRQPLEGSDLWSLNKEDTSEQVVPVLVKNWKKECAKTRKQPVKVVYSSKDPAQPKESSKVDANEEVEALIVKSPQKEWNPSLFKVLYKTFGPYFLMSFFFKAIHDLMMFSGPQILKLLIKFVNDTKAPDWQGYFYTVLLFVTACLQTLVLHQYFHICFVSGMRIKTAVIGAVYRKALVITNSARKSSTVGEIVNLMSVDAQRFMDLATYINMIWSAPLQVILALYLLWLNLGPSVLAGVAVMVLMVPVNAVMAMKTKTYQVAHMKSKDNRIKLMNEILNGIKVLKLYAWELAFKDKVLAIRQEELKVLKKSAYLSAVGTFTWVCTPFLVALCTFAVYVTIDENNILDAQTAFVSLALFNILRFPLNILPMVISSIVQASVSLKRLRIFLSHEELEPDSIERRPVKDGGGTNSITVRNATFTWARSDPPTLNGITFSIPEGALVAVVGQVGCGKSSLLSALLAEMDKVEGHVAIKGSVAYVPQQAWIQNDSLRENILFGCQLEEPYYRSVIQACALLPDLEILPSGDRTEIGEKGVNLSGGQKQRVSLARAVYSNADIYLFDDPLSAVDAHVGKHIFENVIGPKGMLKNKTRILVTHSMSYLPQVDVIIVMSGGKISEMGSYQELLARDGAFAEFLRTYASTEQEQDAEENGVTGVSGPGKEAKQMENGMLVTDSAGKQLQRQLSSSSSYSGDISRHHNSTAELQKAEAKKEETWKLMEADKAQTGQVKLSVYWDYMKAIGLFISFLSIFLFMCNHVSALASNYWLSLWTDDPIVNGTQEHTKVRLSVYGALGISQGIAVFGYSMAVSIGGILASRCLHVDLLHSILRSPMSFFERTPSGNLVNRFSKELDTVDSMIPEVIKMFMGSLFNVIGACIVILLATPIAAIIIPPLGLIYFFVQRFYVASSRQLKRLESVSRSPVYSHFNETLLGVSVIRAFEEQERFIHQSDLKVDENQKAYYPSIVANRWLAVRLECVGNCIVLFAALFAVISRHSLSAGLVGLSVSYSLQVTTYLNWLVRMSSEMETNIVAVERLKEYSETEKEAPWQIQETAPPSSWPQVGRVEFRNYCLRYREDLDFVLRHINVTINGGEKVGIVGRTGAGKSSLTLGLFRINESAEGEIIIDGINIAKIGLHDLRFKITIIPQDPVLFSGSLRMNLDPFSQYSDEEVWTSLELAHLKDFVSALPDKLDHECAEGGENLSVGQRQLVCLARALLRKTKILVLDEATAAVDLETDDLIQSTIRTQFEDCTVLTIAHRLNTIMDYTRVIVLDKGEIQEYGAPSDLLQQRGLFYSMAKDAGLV

Structure (SMILES): CCOC(=O)/C=C\C(=O)OCC [DEM, diethyl maleate]
depletion of RBC GSH (RBC GSH): 50%

Structure (SMILES): C/C=C1\NC(=O)[C@H]2CSSCC/C=C/[C@H](CC(=O)N[C@H](C(C)C)C(=O)N2)OC(=O)[C@H](C(C)C)NC1=O [FK228, (E)-(1S,4S,10S,21R)-7-[(Z)-ethylidene]-4,21-diisopropyl-2-oxz-12,13-dithia-5,8,20,23-tetraazabicyclo[8,7,6]-tricos-16ene-3,6,9,19,22-pentanone]
plasma FK228 concentrations ([1]; following i.v. infusion): < 20 nM
AUC(0-inf) ([1]; 2 mg/kg, I.v. bolus (n = 6)): 0.0683 µM·h
Cmax ([1]; 2 mg/kg, I.v. bolus (n = 6)): 490 ± 164 nM
MRT ([1]; 2 mg/kg, I.v. bolus (n = 6)): 36.3 min
clearance [1, 11]: 237 ± 58 mL/min
Vd [1, 11]: 32.7 ± 4.51 L/kg
Cmax ([1]; 2 mg/kg, I.v. infusion (n = 6)): 25.3 ± 3.7 nM
MRT ([1]; 2 mg/kg, I.v. infusion (n = 6)): 17.7 min
Vd ([1]; 2 mg/kg, I.v. infusion (n = 6)): 10.8 ± 2.7 L/kg
AUC(0-inf) [1, 12]: 0.0667 µM·h
Cmax [1, 12]: 548 ± 249 nM
MRT [1, 12]: 27 min
clearance [1, 12]: 249 ± 18 mL/min
Vd [1, 12]: 29 ± 3.2 L/kg
AUC(0-inf) [1, 13]: 0.0903 µM·h
MRT [1, 13]: 30 min
Cmax ([1]; I.v. bolus with DEM pretreatment (n = 5), called C0 in text): 1180 ± 637 nM
clearance [1, 13]: 276 ± 152 mL/min
Vd [1, 13]: 22.4 ± 13 L/kg
AUC(0-inf) ([1]; I.v. infusion (n = 6)): 0.103 µM·h
clearance ([1]; I.v. infusion (n = 6)): 179 ± 27.5 mL/min
Vd ([1]; I.v. infusion (n = 6)): 11.8 ± 2.7 L/kg
total amount of FK228 in 24-hour urine and 6-hour bile [2]: less than 11 % of the dose
total recovery of intact FK228 from 9 major organ tissues ([2]; 6 hours): 2.5±1.26%
total recovery of intact FK228 from 9 major organ tissues ([2]; 24 hours): 0.56±0.3%
dose excreted ([2]; bile, n=3, read-out: dose recovery from 6 hour bile): 4.76 ± 0.34%
dose excreted ([2]; urine, 2 mg/kg, n=6, read-out: dose recovery from 24 hour urine): 5.9 ± 1.6%
binding to plasma proteins [3]: over 90%
stability [3]: stable
Pgp substrate (Pgp [4]): substrate
MRP1 substrate [5]: substrate
distribution volume [6]: 22.3 ± 7.3 L/kg
total body clearance [6]: 425.3 ± 117.7 mL/min
maximum tolerated dose (MTD) [7]: 17.8 mg/m^2
P-glycoprotein substrate (Pgp [8]): substrate
recovery at 1 h, 10 μg/mL ([9]; male, Sprague-Dawley, rat, fresh heparinized whole blood): < 35%
plasma FK228 remaining ([9]; rat blood at 37° C., within 2 minutes, 0.1-10 μg/mL): over 20%

Structure (SMILES): C/C=C1\NC(=O)C(CS)NC(=O)C(C(C)C)NC(=O)CC(/C=C/CCS)OC(=O)C(C(C)C)NC1=O (centres unmarked) [metabolite A]
IC50 (HDAC): 1.65 ± 0.24 nM
times more potent as HDAC inhibitors than FK228 (HDAC): at least 46 times
half-life at 100 μg/mL (in vitro): 18.5 min
fate in rat RBC [10]: pumped out of rat RBC

Structure (SMILES): CC(C)C1NC(=O)CC(/C=C/CCS)OC(=O)C(C(C)C)NC(=O)C2NC(=O)C(CSC2C)NC1=O (centres unmarked) [metabolite B]
IC50 (HDAC): 0.94 ± 0.14 nM
times more potent as HDAC inhibitors than FK228 (HDAC): ≥ 82 times
stability of metabolite (in vitro; rat plasma containing 10 mM GSH, in words): instable
half-life at 100 μg/mL (in vitro; read-out: terminal half life): 14.4 min
detection in RBC cytosol / homogenate [10]: detected
detection in plasma fraction [10]: detected
fate in rat RBC [10, 14]: remained in rat RBC

Structure (SMILES): CC(C)C1NC(=O)CC(/C=C\CCSSCC(NC(=O)CCC(N)C(=O)O)C(=O)NCC(=O)O)OC(=O)C(C(C)C)NC(=O)C2NC(=O)C(CSC2C)NC1=O (centres unmarked) [metabolite D]
IC50 (HDAC): 15.9 ± 2.7 nM
time to plateau or maximum concentration (in vitro; [15]): 1 h
detection in RBC cytosol / homogenate [10]: detected
detection in plasma fraction [10]: detected
fate in rat RBC [10, 14]: remained in rat RBC

Structure (SMILES): CC(C)C1NC(=O)CC2/C=C/CCSSCC(NC1=O)C(=O)NC(C(C)SCC(NC(=O)CCC(N)C(=O)O)C(=O)NCC(=O)O)C(=O)NC(C(C)C)C(=O)O2 (centres unmarked) [metabolite E]
time to plateau or maximum concentration (in vitro; [15]): 2 h
detection in RBC cytosol / homogenate [10]: detected; also recorded: minor peak
detection in plasma fraction [10]: minor peak

detection in plasma fraction [10]: detected
fate in rat RBC [10, 14]: pumped out of rat RBC
Structure (SMILES): CC(C)C1NC(=O)CC(/C=C/CCS)OC(=O)C(C(C)C)NC2(O)SCC(NC1=O)C(=O)NC2C(C)SCC(NC(=O)CCC(N)C(=O)O)C(=O)NCC(=O)O (centres unmarked) [metabolite F]
